These are literature values, as cited in patent US7208523B2, “Alanine- and glycine-containing therapeutic agent for hepatitis” (Ajinomoto Co., Inc., priority 2000, dated 2007).

SMILES strings stand for the structures.

The conditions of this data set: oral administration of glycine or alanine alone; galactosamine intraabdominal.

In the case of `C[C@H](N)C(=O)O` [alanine], the “inhibition of hepatopathy caused by galactosamine” value is recorded as “inhibits”.

`NCC(=O)O` [glycine]: the “inhibition of hepatopathy caused by galactosamine” value is reported as “inhibits”.
